Reference: patent US9868746B2, “Substituted 5-aminothieno[2,3-C]pyridazine-6-carboxamide analogs as positive allosteric modulators of the muscarinic acetylcholine receptor M4” (Vanderbilt University, priority 2012, dated 2018)

Molecular target: T1, mAChR M4 (Homo sapiens, UniProt P08173)
T1 construct: expressed in transfected cells; host or cells: CHO-K1 cells stably transfected with M4 cDNA and chimeric G-protein Gqi5
T1 sequence (P08173 1-479): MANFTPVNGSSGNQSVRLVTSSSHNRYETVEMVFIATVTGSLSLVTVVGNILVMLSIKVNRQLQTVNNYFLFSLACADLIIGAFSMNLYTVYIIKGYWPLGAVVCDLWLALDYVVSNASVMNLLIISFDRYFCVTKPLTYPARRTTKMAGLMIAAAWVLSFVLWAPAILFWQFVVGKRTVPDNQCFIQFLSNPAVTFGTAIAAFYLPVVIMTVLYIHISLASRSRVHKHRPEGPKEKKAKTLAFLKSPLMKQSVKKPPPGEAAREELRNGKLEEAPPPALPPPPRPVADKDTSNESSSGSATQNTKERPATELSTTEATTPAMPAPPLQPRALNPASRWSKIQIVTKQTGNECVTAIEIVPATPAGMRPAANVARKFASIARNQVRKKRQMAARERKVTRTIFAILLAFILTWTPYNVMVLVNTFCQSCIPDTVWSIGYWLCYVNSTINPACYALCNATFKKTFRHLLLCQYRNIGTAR
Experiment: mAChR M4 cell-based functional assay (calcium mobilization, potentiation of EC20 acetylcholine response)
Conditions: for EC50: mAChR M4 cell-based functional assay, >10,000 estimated for low potency compounds without plateau, read-out: EC50

Row | Emax at 30 µM (% ACh maximum at 30 μM) | EC50 | Emax (%)* (% ACh maximum at 30 μM) | Structure (SMILES)
1 | 54% | 0.24 µM |  | Cc1nnc2sc(C(=O)N3CCC(c4ccccc4)C3C)c(N)c2c1C (stereo not drawn) [Example B163]
2 | 79% | 0.08 µM |  | Cc1nnc2sc(C(=O)NCc3ccc(CN4CCOCC4)cc3)c(N)c2c1C [Example B441]
3 | 39% | 0.059 µM |  | Nc1c(C(=O)NCc2ccc(S(=O)(=O)C(F)F)cc2)sc2nnc3c(c12)CCCC3 [Example B427]
4 | 68% | 0.15 µM |  | Cc1nnc2sc(C(=O)NCc3ccc(S(C)(=O)=O)nc3)c(N)c2c1C [Example B330]
5 | 57% | 0.84 µM |  | COc1ccc2c(c1)CCN(C(=O)c1sc3nnc(C)c(C)c3c1N)C2 [Example B315]
6 | 85% | 0.016 µM |  | Cc1nnc2sc(C(=O)NCc3ccc(S(=O)(=O)C(F)F)c(F)c3)c(N)c2c1C [Example B468]
7 | 78% | 0.025 µM |  | COc1ncc(CNC(=O)c2sc3nnc(C)c(C)c3c2N)cc1F [Example B439]
8 | 77% | 0.068 µM |  | Cc1nnc2sc(C(=O)NCc3ccc(S(=O)(=O)CCO)cc3)c(N)c2c1C [Example B387]
9 | 68% | 0.87 µM |  | CCCCC1(OC)CN(C(=O)c2sc3nnc(C)c(C)c3c2N)C1 [Example B305]
10 | 77% | 0.61 µM |  | CCCOC(=O)N1CCC(NC(=O)c2sc3nnc(C)c(C)c3c2N)C1 (stereo not drawn) [Example B224]
11 | 45% | 0.17 µM |  | Cc1nnc2sc(C(=O)N3CC4CN(c5ccc(C#N)cn5)CC4C3)c(N)c2c1C (stereo not drawn) [Example B438]
12 | 51% | 6.7 µM |  | Cc1nnc2sc(C(=O)N3CC(NS(=O)(=O)c4cn(C)cn4)C3)c(N)c2c1C [Example B174]
13 | 61% | > 10 µM |  | COc1ccc(CNC(=O)c2sc3nnccc3c2N)cc1 [Example B2]
14 | 47% | 1 µM |  | Cc1nnc2sc(C(=O)N3CC4(CN(C(=O)OCc5ccccc5)C4)C3)c(N)c2c1C [Example B398]
15 | 56% | > 10 µM |  | Cc1nnc2sc(C(=O)N3CC4CN(S(C)(=O)=O)CC4C3)c(N)c2c1C (stereo not drawn) [Example B277]
16 | 54% | 0.77 µM |  | COc1ccc(CNC(=O)c2sc3nnc(C)c(C)c3c2N)nc1 [Example B508]
17 | 71% | 0.037 µM |  | Cc1nnc2sc(C(=O)NCc3ccc(-c4cncc(F)c4)cc3)c(N)c2c1C [Example B487]
18 | 75% | 0.19 µM |  | Cc1nnc2sc(C(=O)NCc3ccc(-c4ccccc4O)cc3)c(N)c2c1C [Example B494]
19 | 82% | 1.5 µM |  | Cc1nnc2sc(C(=O)NCc3nccs3)c(N)c2c1C [Example B11]
20 | 41% | > 10 µM |  | Cc1nnc2sc(C(=O)N3C[C@@H]4C[C@@H]3CN4C(=O)c3ccccc3)c(N)c2c1C [Example B263]

Row | Emax at 30 µM (% ACh maximum at 30 μM) | EC50 | Emax (%)* (% ACh maximum at 30 μM) | Structure (SMILES)
21 | 53% | 0.56 µM |  | Cc1nnc2sc(C(=O)N3CC(NC(=O)OCc4ccccc4)C3)c(N)c2c1C [Example B190]
22 | 61% | 2.4 µM |  | Cc1nnc2sc(C(=O)N3CCC(NS(=O)(=O)c4ccc(F)cc4)C3)c(N)c2c1C (stereo not drawn) [Example B223]
23 | 61% | 0.048 µM |  | COc1ccc(NC(=O)N2CC(NC(=O)c3sc4nnc(C)c(C)c4c3N)C2)cc1 [Example B371]
24 | 44% | 1.3 µM |  | Cc1nnc2sc(C(=O)N3CC(S(=O)(=O)c4ccc(F)c(F)c4)C3)c(N)c2c1C [Example B415]
25 | 49% | 0.061 µM |  | Nc1c(C(=O)NCc2ccc3c(c2)OCO3)sc2nnc3c(c12)CCCC3 [Example B50]
26 | 73% | 0.037 µM |  | Cc1nnc2sc(C(=O)NCc3ccc(S(C)(=O)=O)c(F)c3)c(N)c2c1C [Example B33]
27 | 63% | 0.12 µM |  | Cc1nnc2sc(C(=O)NCc3ccc([S+]([O-])C(F)F)cc3)c(N)c2c1C (single isomer, unassigned) [Example B491]
28 | 76% | 0.026 µM |  | Cc1nnc2sc(C(=O)NCc3ccc4c(c3)OC(F)(F)O4)c(N)c2c1C [Example B42]
29 | 61% | 0.11 µM |  | COc1ccc(SC2CN(C(=O)c3sc4nnc(C)c(C)c4c3N)C2)cc1 [Example B416]
30 | 59% | 0.46 µM |  | Cc1nnc2sc(C(=O)N[C@H]3CCN(S(C)(=O)=O)C3)c(N)c2c1C [Example B82]
31 | 39% | 1.9 µM |  | COc1cccc(C2(OC)CN(C(=O)c3sc4nnc(C)c(C)c4c3N)C2)c1 [Example B310]
32 | 87% | 0.14 µM |  | COc1ccc(S(=O)(=O)N2CC(NC(=O)c3sc4nnc(C)c(C)c4c3N)C2)cc1 [Example B144]
33 | 64% | 0.048 µM |  | CCS(=O)(=O)c1ccc(CNC(=O)c2sc3nnc(C)c(C)c3c2N)cc1 [Example B49]
34 | 54% | 0.6 µM |  | Cc1nnc2sc(C(=O)Nc3ccncc3)c(N)c2c1C [Example B38]
35 | 70% | 0.2 µM |  | Cc1nnc2sc(C(=O)NC3CN(C(=O)c4ccccc4F)C3)c(N)c2c1C [Example B396]
36 | 78% | 0.099 µM |  | COCCOc1ccc(CNC(=O)c2sc3nnc(C)c(C)c3c2N)cc1 [Example B233]
37 | 88% | 0.18 µM |  | Cc1nnc2sc(C(=O)NC3CN(C(=O)C4CCC4)C3)c(N)c2c1C [Example B122]
38 |  | 0.5 µM | 70% | Cc1nnc2sc(C(=O)NCc3ccc([S+]([O-])C(F)F)cc3)c(N)c2c1C (single isomer, unassigned) [Example B510]
39 | 65% | > 10 µM |  | Cc1nnc2sc(C(=O)N3CCC(NS(C)(=O)=O)C3)c(N)c2c1C (stereo not drawn) [Example B256]
40 | 49% | 3.9 µM |  | Cc1nnc2sc(C(=O)NCCNC(=O)c3ccncc3)c(N)c2c1C [Example B364]

Row | Emax at 30 µM (% ACh maximum at 30 μM) | EC50 | Emax (%)* (% ACh maximum at 30 μM) | Structure (SMILES)
41 | 91% | 0.093 µM |  | Cc1nnc2sc(C(=O)NC3CN(C(=O)c4ccc(F)cc4)C3)c(N)c2c1C [Example B155]
42 | 84% | 0.43 µM |  | Cc1nnc2sc(C(=O)NC3CCN(C(=O)C4CCCCC4)C3)c(N)c2c1C (stereo not drawn) [Example B226]
43 | 74% | 0.12 µM |  | Cc1nnc2sc(C(=O)NC3CN(C(=O)OCCN(C)C)C3)c(N)c2c1C [Example B341]
44 | 63% | 2.8 µM |  | Nc1c(C(=O)NCc2ccc3c(c2)OCO3)sc2nnccc12 [Example B22]
45 | 59% | 0.017 µM |  | COc1ccc(CNC(=O)c2sc3nnc(C)c(C)c3c2N)cc1Cl [Example B446]
46 | 73% | 0.82 µM |  | COc1cccc(S(=O)(=O)N2CCC(NC(=O)c3sc4nnc(C)c(C)c4c3N)C2)c1 (stereo not drawn) [Example B214]
47 | 73% | 0.23 µM |  | Cc1nnc2sc(C(=O)NC3CN(C(=O)C4CC4)C3)c(N)c2c1C [Example B135]
48 | 48% | 1.6 µM |  | Cc1ccc(S(=O)(=O)N2CCCN(C(=O)c3sc4nnc(C)c(C)c4c3N)CC2)cc1 [Example B114]
49 | 48% | 0.29 µM |  | Cc1nnc2sc(C(=O)N3CC(F)(c4cccc(-c5cccnc5)c4)C3)c(N)c2c1C [Example B321]
50 | 82% | 0.053 µM |  | Cc1nnc2sc(C(=O)NCc3ccc(OCF)cc3)c(N)c2c1C [Example B411]
51 | 97% | 0.13 µM |  | Cc1nnc2sc(C(=O)NC3CN(C(=O)C4CCCCC4)C3)c(N)c2c1C [Example B123]
52 | 53% | > 10 µM |  | Cc1nnc2sc(C(=O)N3CC4CN(C(=O)C(C)(C)C)CC4C3)c(N)c2c1C (stereo not drawn) [Example B333]
53 | 38% | 0.37 µM |  | Cc1nnc2sc(C(=O)NCCNC(=O)c3ccc(F)cc3)c(N)c2c1C [Example B340]
54 | 67% | 0.36 µM |  | Cc1nnc2sc(C(=O)NCc3ccc4c(c3)CC(=O)N4)c(N)c2c1C [Example B276]
55 | 65% | 0.054 µM |  | Cc1nnc2sc(C(=O)NC3CN(S(=O)(=O)c4cccc(Cl)c4F)C3)c(N)c2c1C [Example B139]
56 | 80% | 0.52 µM |  | Cc1nnc2sc(C(=O)NC3COC3)c(N)c2c1C [Example B24]
57 | 75% | 1.5 µM |  | Cc1nnc2sc(C(=O)NC3CCCCC3)c(N)c2c1C [Example B97]
58 | 35% | 0.35 µM |  | COC1(c2cccc(F)c2)CN(C(=O)c2sc3nnc(C)c(C)c3c2N)C1 [Example B299]
59 | 58% | 0.029 µM |  | Cc1nnc2sc(C(=O)NC3CN(C(=O)OC(C)(C)C)C3)c(N)c2c1C [Example B83]
60 | 78% | 0.59 µM |  | Cc1nnc2sc(C(=O)NC3CCN(C(=O)c4c(F)cccc4F)C3)c(N)c2c1C (stereo not drawn) [Example B243]

Row | Structure (SMILES) | Emax at 30 µM (% ACh maximum at 30 μM) | EC50 | Emax (%)* (% ACh maximum at 30 μM)
61 | Cc1nnc2sc(C(=O)NC3CNC3)c(N)c2c1C [Example B81] | 34% | > 10 µM | 
62 | Cc1nnc2sc(C(=O)N3CC(NC(=O)Oc4ccccc4)C3)c(N)c2c1C [Example B167] | 65% | 0.47 µM | 
63 | Cc1nnc2sc(C(=O)N3CC(NC(=O)Oc4ccccc4)(c4ccccc4)C3)c(N)c2c1C [Example B309] | 48% | > 10 µM | 
